Test results from patent US20130116282A1, “BUCKWHEAT EXTRACT ENRICHED IN D-FAGOMINE” (BIOGLANE, S.L.N.E., priority 2010, published 2013).

Tests used:
Sprague-Dawley rats = assay: Post-prandial blood glucose test after sucrose administration; assay type: in vivo, rat; conditions: sucrose 2 g/kg, 1.0 mg/kg D-fagomine
Method: The effect on postprandial blood glucose of both D-fagomine enriched extract from buckwheat and D-fagomine obtained chemoenzimatically following the procedure described in WO2008025826A1 was evaluated. Adult male Sprague-Dawley rats of 200-220 g body weight (Janvier, Le Genest-St-Isle, France) were housed in cages (n=2/cage) under controlled conditions of stable humidity (40-77%), and temperature (23° C.) with a 12-hour light/dark cycle. The rats were fed a standard diet (Panlab A04, Panlab, Barcelona, Spain) and given water ad libitum. To minimize circadian rhythm effects, rat manipulations were carried out in the morning. Handling and sacrificing of the animals were in full accordance with the European Union guidelines for the care and management of laboratory animals and the pertinent permission was obtained from the CSIC Subcommittee of Bioethical Issues. The authors further attest that all efforts were made to minimize the number of animals used and their suffering. The glucose test was performed after a 12 h food deprivation period. A solution of sucrose (2 g/kg body weight) together with the appropriate amount of the compound being tested was administered to the rats. […] Blood glucose concentration was measured by the enzyme electrode method using Elite blood glucose test strips and a blood glucose meter Ascensia ELITE XL both from Bayer Consumer Care AG (Basel, Switzerland). […]

Escherichia coli = assay: Adhesion of Escherichia coli to mucus (pig intestinal mucosa); assay type: cell-based; conditions: 10 mg/L D-fagomine
Method: Adhesion to Mucus. Protocol
The strains of Escherichia coli used were obtained from the Bacterial Strain Collection of the Faculty of Veterinary Science at the Universitat Autònoma de Barcelona. Overnight, cultures of the bacterial strain were inoculated into flasks containing Luria medium (Liofilchem, Roseto degli Abruzzi, Italy) (3 mL) to facilitate the production of fimbriae. The strains were incubated at 37° C. for 24 h. Then, colonies were grown on Luria medium Agar plates and after 24 h of incubation, several dilutions were prepared in PBS (phosphate buffered saline, Sigma Aldrich, St Louis, Mo., USA) for each strain, down to a concentration of 1×10^7 CFU mL^−1.
The mucosa was obtained from intestinal segments of pigs, just after they were killed at a local slaughterhouse, and kept frozen until use. The mucosa preparation (1 mL) was defrosted, centrifuged and mixed with PBS (99 mL). Prior to each test, the concentration of mucine in the suspension was calculated by the Bradford method. Multiwell plates (Nunc®, Roskilde, Denmark) were treated with the mucosa suspension (2.5 mL) overnight at 4° C. […] Finally, the colony forming units from both the supernatant and mucosa were counted under an optical microscope after cultivating both fractions overnight.

alpha-glycosidase = conditions: Kato et al. 1997; cited from earlier work
lactase = conditions: Kato et al. 1997; cited from earlier work
[1] = test system: Streptozotocin-diabetic mice; conditions: Nojima et al. 1998; cited from earlier work

## OC[C@H]1NCC[C@@H](O)[C@@H]1O [D-fagomine WO2008025826A1, (2R,3R,4R)-2-(hydroxymethyl)piperidine-3,4-diol]
Sprague-Dawley rats
  Increase in plasma glucose after sucrose administration: lowered
Escherichia coli
  Agglutination of the microorganisms: agglutinated
  Bacterial adhesion to the mucus: not detected
alpha-glycosidase
  alpha-glycosidase inhibition: weak inhibitor
lactase
  lactase inhibition: weak inhibitor
[1]
  antihyperglycemic effect: antihyperglycemic effect
